# Measurements as given in patent publication US20090215763A1, “SUBSTITUTED BENZOXAZINONES” (P&H Therapeutics, Inc., priority 2008, published 2009).
# Test system: spontaneously hypertensive rat (SHR)
# Test: In vivo model study: telemetry cardiovascular assessment in SHR rats
# Settings: male SHR rats, intraperitoneal administration, radiotelemetry, preliminary evaluation
# Description: The objective of this study is to define the magnitude, time course and dose/concentration response relationship of compound 13 antihypertensive effects when administered intraperitoneally (IP) to male SHR rats maintained on standard and low salt diets. In Vivo Phase I: Three male SHR rats, 7-10 weeks of age weighing 150-300 g, will be instrumented with radiotelemetry transmitters. Following an approximate 2-week recovery period, animals will receive a single intraperitoneal dose of test article. Cardiovascular data will be collected for approximately 24 hours following dosing. Cardiovascular data is collected from non-restrained animals implanted with radiotelemetry devices. 1. SHR rats, 7-10 weeks of age weighing 150-300 g, are implanted with radiotelemetry devices. Transmitters are placed subcutaneously in the ventral abdominal region and blood pressure is monitored from the femoral artery. Animals will be allowed to recover at least 10 days prior to data collection. 5. At least 1 hour of baseline is collected from undisturbed animals prior to each dosing. Following test article administration, approximately 24 hours of data is collected from undisturbed animals to assess hemodynamic effects.
smiles,measurement,value
CCc1nc(N)nc(N)c1-c1ccc2c(c1)N(CCNC(=O)OC)C(=O)[C@](C)(c1cc(F)cc(F)c1)O2 [Compound 13],blood pressure reduction in SHR (antihypertensive effect),blood pressure reduction
